Measurements published in patent publication US10543178B2, “Dosage forms and related therapies” (PhilERA New Zealand Limited, priority 2002, dated 2020).
“And” between values parts separate entries of the source, which are not always exact repeats. Equal entries are not always repeated. “Also recorded” adds a separate entry of the source. Where two headings read alike, the source gives them in different places.

Assays:
STZ diabetic rats [1] = test: Isolated working heart: cardiac function after 7 weeks oral trientine in drinking water; settings: for Heart weight / Left Ventricular wall thickness / Left Ventricular wall thickness per BW / Heart weight (g)/BW (g): trientine weeks 7-13
[2] = cited from earlier work
[3] = T2DM and controls
Method: Total metal balance studies were performed in a residential metabolic unit. Total fecal outputs were collected daily for 12 days, freeze dried, and analyzed by ICP-MS for content of Cu, Fe, Zn, Ca, Mg, Mn, Cr, […] and Se.

humans with T2DM = test: 6-month randomized double-blind placebo-controlled trial of oral trientine, LV mass by cardiac MRI; settings: 6 months' trientine therapy
Description: Subjects (30-70 y) who provided written informed consent were eligible for inclusion if they had: T2DM with HbAu1c>7%; cardiac ejection fraction (echocardiography) ≥45% with evidence of diastolic dysfunction but no regional wall-motion anomalies; no new medications for more than 6 months with no change of β-blocker dose; normal electrocardiogram (sinus rhythm, normal PR Interval, normal T wave and QRS configuration, and isoelectric ST segment); and greater than 90% compliance with single-blinded placebo therapy during a 2-w run-in period. Women were required to be post-menopausal, surgically sterile, or non-lactating and non-pregnant and using adequate contraception.
Before randomization, potentially eligible subjects entered a 4-w single blind run-in phase of two placebo-capsules twice-daily and underwent screening echocardiography, being excluded if regional wall motion abnormalities or impaired LV systolic function (ejection fraction <50%) were detected. In addition, LV diastolic filling was assessed using mitral inflow Doppler (with pre-load reduction) to ensure patients had abnormalities of diastolic filling; no patient with normal mitral filling proceeded to randomisation. […]
At baseline and following 6 months' treatment, LV mass was determined using cardiac MRI, performed in the supine position with the same 1.5 T scanner (Siemens Vision) using a phased array surface coil. […]

[4] = Description: Methods were as follows. Human studies were approved by institutional ethics and regulatory committees. We measured urinary metal excretion in human males with T2DM or matched non-diabetic controls, baseline information on which is shown in Table 9, in a randomized, double blind, placebo-controlled trial. Males with uncomplicated T2DM (Table 9) underwent 12-d elemental balance studies in a fully residential metabolic unit. All foods and beverages were provided. Total daily intake (method of double diets) and excretion (urinary and fecal) of trace elements (Ca, Mg, Zn, Fe, Cu, Mn, Mo, Cr and Se) were determined (ICP MS).
[5] = 0.67-670 mg/ml in 0.9% saline, four months at 4° C.
Method: The concentrations of the stock formulations were: 0.67 mg/ml, 6.7 mg/ml, 67 mg/ml, and 670 mg/ml. The formulation was then administered to the rats in doses of 0.1 mg/kg, 1 mg/kg, 10 mg/kg, and 100 mg/kg to the animals respectively.

diabetic Wistar rats = settings: six months of treatment
[6] = normal and diabetic rats, acute i.v. increasing doses
Method: Methods were carried out as follows. Spectrophotometric analysis was conducted as described in Example 2. Cu, Fe and Zn in tissue digests were determined at Hill Laboratories (Hamilton, New Zealand) using either a PE Sciex Elan-6000 or PE Sciex Elan-6100 DRC ICP-MS.
Sample pre-treatment was carried out as follows. Heart: Following removal from the animal, the heart was cleaned of excess tissue, rinsed in buffer to remove excess blood, blotted dry and a wet ventricular weight recorded. Using titanium instruments a segment of left ventricular muscle was dissected and placed in a pre-weighed 5.0 ml polystyrene tube. The sample was freeze-dried overnight to constant weight before 0.45 ml of 69% Aristar grade HNO3 was added. The sample tube was heated in a water bath at 65° C. for 60 minutes. The sample was brought to 4.5 ml with Milli-Q H2O. The resulting solution was diluted 2:1 in order to reduce the HNO3 concentration below the maximum permitted for ICP-MS analysis.

STZ diabetic rats [7] = settings: LCM and TEM
Description: Methods were as follows. Following functional analysis, LV histology was studied by laser confocal (LCM; FIG. 29a-d) and transmission electron microscopy (TEM; FIG. 29e-h). For LCM, LV sections were co-stained with phalloidin to visualize actin filaments, and β1-integrin as a marker for the extracellular space. Ding B, et al., “Left ventricular hypertrophy in ascending aortic stenosis in mice: anoikis and the progression to early failure,” Circulation 101:2854-2862 (2000).
For each treatment, 5 sections from each of 3 hearts were examined by both LCM and TEM. For LCM, LV sections were fixed (4% paraformaldehyde, 24 h); embedded (6% agar); vibratomed (120 pm, Campden); stained for f-actin (Phalloidin-488, Molecular Probes) and β1-integrin antibody with a secondary antibody of goat anti-rabbit conjugated to CY5 (1:200; Ding B, et al., “Left ventricular hypertrophy in ascending aortic stenosis in mice: anoikis and the progression to early failure,” Circulation 101:2854-2862 (2000)); and visualised (TCS-SP2, Leica). For TEM, specimens were post-fixed (1:1 v/v 1% w/v 0s0 M 0s0 M PBS); stained (aqueous uranyl acetate (2% w/v, 20 mm) then lead citrate (3 mm)); sectioned (70 nm); and visualized (CM-12, Phillips).

[8] = remark: listed apart in the source
Method: (§1) Following surgery and a 20 min stabilization period, the experimental protocol was started. […] Control animals received an equivalent volume of saline. Urine was collected in 15 min aliquots throughout the experiment in pre-weighed polyethylene epindorf tubes. At the end of the experiment a terminal blood sample was taken by cardiac puncture and the separated serum stored at −80° C. until future analysis. Hearts were removed through a rapid mid-sternal thoracotomy and processed as described below.
Mean arterial pressure (MAP), heart rate (HR, derived from the MAP waveform) oxygen saturation (Nonin 8600V Pulse Oximeter, Nonin Medical Inc., Minnesota, USA) and core body temperature, were all continuously monitored throughout the experiment using a PowerLab/16s data acquisition module (AD Instruments, Australia).
Following surgery and a 20 min stabilization period, the experimental protocol was started. […] Urine was collected throughout the experiment in 15 min aliquots.

[9] = 15 days
Method: One sample of the solution was stored in the dark at 4° C. and 21° C. in the dark and a third sample was stored at 21° C. in daylight.
The Ultraviolet-visible spectrum of the formulation was initially measured at day 0 and then at day 15. 20 μl aliquots of sample solutions were taken at day 15. For each aliquot 960 μl of 50 mM TRIS buffer and 20p aliquot of Copper Nitrate standard (100 mM—Orion Research Inc) were added.

[10] = remark: listed apart in the source
Description: All animals were fasted overnight prior to surgery but continued to have ad libitum access to deionized water. […] The femoral artery and vein were cannulated with a solid-state blood pressure transducer (Mikrotip™ 1.4F, Millar Instruments, Texas, USA) and a saline filled PE 50 catheter respectively. The ureters were exposed via a midline abdominal incision, cannulated using polyethylene catheters (external diameter 0.9 mm, internal diameter 0.5 mm) and the wound sutured closed. The trachea was cannulated and the animal ventilated at 70-80 breaths·min^−1 with air supplemented with 02 (Pressure Controlled Ventilator, Kent Scientific, Connecticut, USA). The respiratory rate and end-tidal pressure (10-15 cmH2O) were adjusted to maintain end-tidal CO2 at 35-40 mmHg (SC-300 CO2 Monitor, Pryon Corporation, Wisconsin, USA). Body temperature was maintained at 37° C. throughout surgery and the experiment by a heating pad. Estimated fluid loss was replaced with intravenous administration of 154 mmol·l^−1 NaCl solution at a rate of 5 ml·kg^−1·h^−1.
as §1
Urine and tissue analysis was carried out as follows. Instrumentation: A Perkin Elmer (PE) Model 3100 Atomic Absorption Spectrophotometer equipped with a PE HGA-600 Graphite Furnace and PE AS-60 Furnace Autosampler was used for Cu and Fe determinations in urine. Deuterium background correction was employed. A Cu or Fe hollow-cathode lamp (Perkin Elmer Corporation) was used and operated at either […]. The 324.8 nm atomic line was used for Cu and the 248.3 nm atomic line for Fe. The slit width for both Cu and Fe was 0.7 nm. Pyrolytically coated graphite tubes were used for all analyses. The injection volume was 20 μL. A typical graphite furnace temperature program is shown below:
Urine: Urine was collected in pre-weighed 1.5 ml micro test tubes (eppendorf). After reweighing, the urine specimens were centrifuged and the supernatant diluted 25:1 with 0.02 M 69% Aristar grade HNO3. The sample was stored at 4° C. prior to GF-AAS analysis. If it was necessary to store a sample for a period in excess of 2 weeks, it was frozen and kept at −20° C. Serum: Terminal blood samples were centrifuged and serum treated and stored as per urine until analysis. From the trace metal content of serum from the terminal blood sample and urine collected over the final hour of the experiment, renal clearance was calculated using the following equation: […]
Statistical analyses were carried out as follows. All values are expressed as mean±SEM and P values <0.05 were considered statistically significant. Student's unpaired t-test was initially used to test for weight and glucose differences between the diabetic and control groups. For comparison of responses during drug exposure, statistical analyses were performed using analysis of variance (Statistics for Windows v.6.1, SAS Institute Inc., California, USA). Subsequent statistical analysis was performed using a mixed model repeated measures ANOVA design (see Example 4).

[11] = reported, Kodama et al. 1997; cited from earlier work
[12] = Induction of diabetes by streptozotocin; assay type: in vivo, rat; settings: three days following STZ injection, 55 mg·kg^−1 i.v., mean ± SEM
Description: In order to induce diabetes, male Wistar rats (n=28, 303±2.9 g) were divided randomly into diabetic and nondiabetic groups. […] Nondiabetic animals received an equivalent volume of saline. […] Blood glucose and body weight were measure at day 3 following STZ/saline injection and then weekly throughout the study. Diabetes was identified by polydipsia, polyuria and hyperglycemia (>11 mmol·l^−1, Advantage II, Roche Diagnostics, NZ Ltd).

NCCNCCNCCN [trientine, N,N′-Bis(2-aminoethyl)-1,2-ethanediamine]
Cardiac function versus untreated diabetic controls (STZ diabetic rats [1]; STZ diabetic rats, oral trientine 7 weeks): improved; also recorded: global improvement in cardiac function | Heart weight (STZ diabetic rats [1]; STZ/D7 diabetic rats): 1.18 ± 0.24 g | Left Ventricular wall thickness (STZ diabetic rats [1]; STZ/D7 diabetic rats): 3.79 ± 0.52 mm | Left Ventricular wall thickness per BW (STZ diabetic rats [1]; STZ/D7 diabetic rats): 0.0127 ± 0.0027 mm/g | Heart weight (g)/BW (g) (STZ diabetic rats [1]; STZ/D7 diabetic rats, P < 0.05 vs STZ): 0.0041 ± 0.0005 g/g | Heart weight (STZ diabetic rats [1]; Sham/D7 non-diabetic rats): 1.58 ± 0.05 g | Heart weight (g)/BW (g) (STZ diabetic rats [1]; Sham/D7 non-diabetic rats): 0.0028 ± 0.0001 g/g | Left Ventricular wall thickness (STZ diabetic rats [1]; Sham/D7 non-diabetic rats): 4.03 ± 0.1 mm | Left Ventricular wall thickness per BW (STZ diabetic rats [1]; Sham/D7 non-diabetic rats): 0.0072 ± 0.0003 mm/g | Blood glucose profile versus untreated comparison group (STZ diabetic rats [1]; both treated groups, p = ns): no difference | Indicators for ventricular contraction and relaxation versus untreated diabetic group (STZ diabetic rats [1]; drug treated diabetic group): significantly improved | Trientine treated diabetic hearts still functioning (STZ diabetic rats [1]; increasing after-load, constant pre-load, when 50% of the untreated diabetic hearts had failed): about 90% | Effects on cardiac performance of normal animals (STZ diabetic rats [1]; non-diabetic rats, drug treatment): no adverse effects | Cardiac output (STZ diabetic rats [1]; pre-load increased, after-load held constant, treated diabetic rats): restored to Sham values | Bioavailability of the active species after oral administration [2]: < 10% | Effect on fecal outputs of Zn, Fe, Ca, Mg, Mn, Cr, Mb or Se [3]: Neither diabetes nor drug had measurable effects | Drug-related adverse events (humans with T2DM): No significant drug-related adverse events | Trientine-evoked urinary Fe excretion ([4]; T2DM and controls, oral 2.4 g): no corresponding increase | Urinary Cu versus placebo ([4]; both groups (T2DM and controls), day 7, oral 2.4 g): increased | Cu excretion from T2DM versus non-diabetic controls following trientine-treatment ([4]; day 7, 2.4-g oral dose, P<0.05): significantly greater | Stability on storage (efficacy as copper chelator) [5]: remains active as a copper chelator | Stability on storage (efficacy as copper chelator) ([5]; listed as trientine hydrochloride): without appreciable deterioration in efficacy | Protection of the heart from development of diabetic damage (cardiomyopathy), as judged by histology (diabetic Wistar rats): appears to protect | Effect on the copper content of cardiac tissue [6]: no significant effect | Myocardium from trientine-treated nondiabetics (STZ diabetic rats [7]): appeared normal | Time to recovery from blood pressure fall ([8]; 100 mg/kg i.v.): 10 min | Effect on blood pressure ([8]; acute i.v. 0.1, 1, 10 and 100 mg/kg): no significant effect | Effect of infusion on MAP and HR ([8]; doses below the highest dose): no effect | Time for MAP to return to pre-dose levels ([8]; highest dose 100 mg/kg i.v.): ≤ 10 min | Maximum decrease in MAP (blood pressure fall) ([8]; highest dose 100 mg/kg i.v., 2 min following administration, 100 mg/kg): 19±4 mmHg and 19+/−4 mmHg | Change in ability to chelate copper on storage ([9]; 100 mM in deionized water, 4° C. dark, 21° C. dark, 21° C. daylight): no detectable change | Effect of room light on copper chelation ([9]; 100 mM solution, 21° C. in daylight): no detectable detrimental effect | Iron excretion versus equivalent volume of saline ([10]; diabetic and nondiabetic rats): not greater | Total iron excretion versus saline ([10]; diabetic and nondiabetic rats): not different | Urinary Cu excretion versus equivalent volume of saline ([10]; diabetic and nondiabetic rats, all doses 0.1-100 mg/kg i.v.): excreted more Cu | Cu excretion in the urine versus saline ([10]; diabetic rats, 0.1 mg·kg^−1 i.v. (lowest dose)): significantly increased | Copper excretion per gram of body weight, diabetic versus nondiabetic animals ([10]; in response to each dose of drug): significantly greater | Total copper excreted over the entire duration of the experiment versus saline controls ([10]; nondiabetic and diabetic rats): significantly increased | Urine excretion versus equivalent volume of saline ([10]; nondiabetic rats, 100 mg·kg^−1 i.v.): increased | Form of urinary Cu by electron paramagnetic resonance spectroscopy ([10]; urine of drug-treated animals): mainly complexed as trientine-Cu^II

CC(=O)NCCNCCNCCN.Cl [N-acetyl-trientine hydrochloride]
Chelating activity compared with trientine dihydrochloride [11]: significantly lower

CN(N=O)C(=O)N[C@H]1C(O)O[C@H](CO)[C@@H](O)[C@@H]1O (mixture of isomers) [STZ, streptozotocin]
Blood glucose [12]: 25 ± 2 mmol/L
